Data: patent publication US9549927B2, “Heteroaryl compounds and uses thereof” (Celgene Avilomics Research, Inc., priority 2012, dated 2017)

biological target: T1, full-length recombinant human Btk protein (Homo sapiens, UniProt Q06187); experiment: Covalent bonding assay, intact protein MALDI mass spectrometry; format: binding; conditions: 60 minutes incubation, 10-fold excess of compound to protein, room temperature
T1 construct: The full-length recombinant human Btk protein; purchased Invitrogen (Carlsbad, Calif.) Lot #619547Q (catalogue number not given)
T1 sequence (Q06187 whole entry): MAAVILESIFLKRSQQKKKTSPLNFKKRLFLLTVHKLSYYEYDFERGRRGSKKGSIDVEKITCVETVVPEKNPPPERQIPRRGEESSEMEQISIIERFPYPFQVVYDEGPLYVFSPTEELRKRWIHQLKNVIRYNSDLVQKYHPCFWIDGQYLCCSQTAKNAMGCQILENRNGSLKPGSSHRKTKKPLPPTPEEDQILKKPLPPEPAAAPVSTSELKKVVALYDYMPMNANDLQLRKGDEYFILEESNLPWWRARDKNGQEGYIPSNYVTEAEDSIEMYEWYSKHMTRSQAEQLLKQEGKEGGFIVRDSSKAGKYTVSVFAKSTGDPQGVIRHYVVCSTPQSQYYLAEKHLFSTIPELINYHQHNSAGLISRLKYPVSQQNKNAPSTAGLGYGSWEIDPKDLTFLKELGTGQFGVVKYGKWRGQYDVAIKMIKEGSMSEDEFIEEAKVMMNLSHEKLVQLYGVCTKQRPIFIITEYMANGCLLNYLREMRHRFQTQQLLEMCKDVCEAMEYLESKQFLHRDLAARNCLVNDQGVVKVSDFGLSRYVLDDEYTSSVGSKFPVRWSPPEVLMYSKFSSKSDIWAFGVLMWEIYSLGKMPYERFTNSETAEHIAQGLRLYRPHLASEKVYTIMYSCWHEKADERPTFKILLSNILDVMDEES
Protocol: The following example describes testing certain compounds to determine whether they covalently bind to BTK. The full-length recombinant human Btk protein (Lot #619547Q; 0.35 mg/mL) was obtained from Invitrogen (Carlsbad, Calif.). Btk protein was diluted 2:3 in phosphate-buffered saline and stock concentration (10 mM) of compound was diluted 1:115 in 50% DMSO.
For all compounds, 1 μL of diluted compound was added to 5 μL of diluted protein. These mixtures were then incubated for 60 minutes at a 10-fold excess of compound to protein under room temperature (˜24° C.) conditions.
At the end of the incubation, 5 μL aliquots of the samples were diluted with 15 μL of 0.2% TFA prior to micro C4 ZipTipping® directly onto the MALDI target plate using sinapinic acid as the desorption matrix (10 mg/mL in 0.2% TFA:Acetonitrile 50:50). Samples were immediately analyzed on an ABSciex 4800 MALDI TOF-TOF mass spectrometer.
For intact protein mass measurement, the mass spectrometer was set in linear mode using a pulsed extraction setting of 81,500. Bovine serum albumin (BSA; Sigma, St Louis, Mo.) was used as the standard to calibrate the instrument. These values correspond to the percentage of total protein covalently modified by the tested compound after one hour incubation.

Q: `C=CC(=O)Nc1cccc(Nc2nc(Nc3ccc(OCCO)cc3)ncc2F)c1` [Compound I-1, N-(3-((5-fluoro-2-((4-(2-hydroxyethoxyl)phenyl)amino)pyrimidin-4-yl)amino)phenyl)acrylamide] was tested. Which MS % modification did it give?
A: B (31-69% modification)

Q: `C=CC(=O)Nc1cccc(Nc2nc(Nc3ccc(O)cc3)ncc2F)c1` [Compound I-3, N-(3-((5-fluoro-2-((4-hydroxyphenyl)amino)pyrimidin-4-yl)amino)phenyl)acrylamide] was tested. Which MS % modification did it give?
A: A (>70% modification)

Q: Which MS % modification does the source give for `COCCOc1ccc(Nc2ncc(F)c(Nc3cccc(NC(=O)C(O)CO)c3)n2)cc1` (stereo not drawn) [Compound I-4, N-(3-((5-fluoro-2-((4-(2-methoxyethoxyl)phenyl)amino)pyrimidin-4-yl)amino)phenyl)-2,3-dihydroxypropanamide] here?
A: C (<30% modification)

Q: For `O=C(Nc1cccc(Nc2nc(Nc3ccc(OCCO)cc3)ncc2F)c1)C(O)CO` (stereo not drawn) [Compound I-5, N-(3-((5-fluoro-2-((4-(2-hydroxyethoxyl)phenyl)amino)pyrimidin-4-yl)amino)phenyl)-2,3-dihydroxypropanamide], which MS % modification is on record?
A: C (<30% modification)

Q: With `O=C(Nc1cccc(Nc2nc(Nc3ccc(O)cc3)ncc2F)c1)C(O)CO` (stereo not drawn) [Compound I-6, N-(3-((5-fluoro-2-((4-hydroxyphenyl)amino)pyrimidin-4-yl)amino)phenyl)-2,3-dihydroxypropanamide] as the molecule, how does the MS % modification read?
A: C (<30% modification)

Q: `COCCOc1ccc(Nc2ncc(F)c(Nc3cccc(NC(=O)C4CO4)c3)n2)cc1` (stereo not drawn) [Compound I-19, N-(3-((5-fluoro-2-((4-(2-methoxyethoxyl)phenyl)amino)pyrimidin-4-yl)amino)phenyl)oxirane-2-carboxamide] was tested. Which MS % modification did it give?
A: A (>70% modification)
